US20250129054A1 (Terran Biosciences Inc., priority 2022, published 2025)

Experiment: Serial tail vein bleed PK study in SD rats: methylone measured in plasma after IV or oral methylone or oral methylone prodrugs
Format: in vivo, Sprague Dawley rats
Conditions: for Tlast: analyte methylone in plasma, oral methylone THP 1-ethyl ester prodrug 10 mg/kg, male SD rats; for Plasma Concentrations of metabolite methylone: 10 mg/kg, rat
Method: A pharmacokinetic (PK) study was performed in three male Sprague-Dawley (SD) rats following intravenous (IV) and oral (PO) administration of methylone at 1 mg/kg (IV) and 10 mg/kg (PO) respectively, or test compounds (prodrugs of methylone) at 10 mg/kg (PO). Parent compound (methylone) was measured in plasma.
Samples were sent for method optimization and measurement of parent compound (methylone) via unique calibration lines and following acceptance QC's. Dose formulation concentrations were also measured, and PK parameters were determined (Cmax (ng/mL), Tmax (hr), Cl (ml/min/kg), Vdss (L/kg), t½(hr), AUC0-t (ng/mL*hr), AUC0-inf (ng/mL*hr), MIRT (hr), Bioavailability ([…]) where warranted) using WinNon Lin software. Data (including bioanalytical results and assay performance) were reported in a tabulated format.
Formulation for PO Administration: For PO dosing, the prodrug was formulated in 10% DMSO/20% PEG400/70% water to a concentration of 2 mg free metabolite material/mL. This provided a dose of 10 mg free metabolite/kg when the prodrug was administered PO in 5 mL/kg dosing volumes.
Formulation for IV administration: For IV dosing, rac-methylone was formulated as solution in saline to a concentration of 0.5 mg free metabolite material/mL. This provided a dose of 1 mg free metabolite/kg when administered IV in 2 mL/kg dosing volumes.
The pharmacokinetic properties of the synthesized methylone prodrugs after oral administration in a rat model were assessed. The concentration of methylone was measured in each rat at various sampling timepoints after IV or oral administration of rac-methylone or the synthesized methylone prodrugs to rats.
Dose formulations were made at equivalent concentrations of active compound (methylone) adjusted for molecular weight of the compounds. The synthesized methylone prodrugs or analogs were dosed at 10 mg/kg oral (PO) nominal dose. Nominal doses were used in PK parameter determinations. The parent compound (methylone) was dosed at 1 mg/kg intravenous (IV) and 10 mg/kg (PO).

[1] = 0.500 h after oral dosing of the prodrug, individual animals
[2] = 0.500 h after oral dosing of the prodrug, mean
[3] = 1.00 h after oral dosing of the prodrug, individual animals
[4] = 1.00 h after oral dosing of the prodrug, mean
[5] = 2.00 h after oral dosing of the prodrug, individual animals
[6] = 2.00 h after oral dosing of the prodrug, mean
[7] = 4.00 h after oral dosing of the prodrug, individual animals
[8] = 4.00 h after oral dosing of the prodrug, mean
[9] = 7.00 h after oral dosing of the prodrug, individual animals
[10] = 7.00 h after oral dosing of the prodrug, mean
[11] = 24.0 h after oral dosing of the prodrug, individual animals
[12] = 24.0 h after oral dosing of the prodrug, mean

## 1-[[2-(1,3-Benzodioxol-5-yl)-1-methyl-2-oxo-ethyl]-methyl-carbamoyl]oxyethyl tetrahydropyran-4-carboxylate [Compound 6E]
Individual animal
  Tlast: 7.00 h
mean
  Tlast: 7.00 h

## CCOC(=O)N(C)C(C)C(=O)c1ccc2c(c1)OCO2 (centres unmarked) [Compound 1A, Ethyl N-[2-(1,3-benzodioxol-5-yl)-1-methyl-2-oxo-ethyl]-N-methyl-carbamate]
[1]
  Plasma Concentrations of metabolite methylone: BLQ (Below Lower Limit of Quantification (0.5 ng/mL))
[2]
  Plasma Concentrations of metabolite methylone: BLQ (Below Lower Limit of Quantification (0.5 ng/mL))
[3]
  Plasma Concentrations of metabolite methylone: BLQ (Below Lower Limit of Quantification (0.5 ng/mL))
[4]
  Plasma Concentrations of metabolite methylone: BLQ (Below Lower Limit of Quantification (0.5 ng/mL))
[5]
  Plasma Concentrations of metabolite methylone: BLQ (Below Lower Limit of Quantification (0.5 ng/mL))
[6]
  Plasma Concentrations of metabolite methylone: BLQ (Below Lower Limit of Quantification (0.5 ng/mL))
[7]
  Plasma Concentrations of metabolite methylone: BLQ (Below Lower Limit of Quantification (0.5 ng/mL))
[8]
  Plasma Concentrations of metabolite methylone: BLQ (Below Lower Limit of Quantification (0.5 ng/mL))
[9]
  Plasma Concentrations of metabolite methylone: BLQ (Below Lower Limit of Quantification (0.5 ng/mL))
[10]
  Plasma Concentrations of metabolite methylone: BLQ (Below Lower Limit of Quantification (0.5 ng/mL))
[11]
  Plasma Concentrations of metabolite methylone: BLQ (Below Lower Limit of Quantification (0.5 ng/mL))
[12]
  Plasma Concentrations of metabolite methylone: BLQ (Below Lower Limit of Quantification (0.5 ng/mL))

## CC(C)OC(=O)N(C)C(C)C(=O)c1ccc2c(c1)OCO2 (centres unmarked) [Compound 1B, iso-Propyl N-[2-(1,3-benzodioxol-5-yl)-1-methyl-2-oxo-ethyl]-N-methyl-carbamate]
[1]
  Plasma Concentrations of metabolite methylone: BLQ (Below Lower Limit of Quantification (0.5 ng/mL))
[2]
  Plasma Concentrations of metabolite methylone: BLQ (Below Lower Limit of Quantification (0.5 ng/mL))
[3]
  Plasma Concentrations of metabolite methylone: BLQ (Below Lower Limit of Quantification (0.5 ng/mL))
[4]
  Plasma Concentrations of metabolite methylone: BLQ (Below Lower Limit of Quantification (0.5 ng/mL))
[5]
  Plasma Concentrations of metabolite methylone: BLQ (Below Lower Limit of Quantification (0.5 ng/mL))
[6]
  Plasma Concentrations of metabolite methylone: BLQ (Below Lower Limit of Quantification (0.5 ng/mL))
[7]
  Plasma Concentrations of metabolite methylone: BLQ (Below Lower Limit of Quantification (0.5 ng/mL))
[8]
  Plasma Concentrations of metabolite methylone: BLQ (Below Lower Limit of Quantification (0.5 ng/mL))
[9]
  Plasma Concentrations of metabolite methylone: BLQ (Below Lower Limit of Quantification (0.5 ng/mL))
[10]
  Plasma Concentrations of metabolite methylone: BLQ (Below Lower Limit of Quantification (0.5 ng/mL))
[11]
  Plasma Concentrations of metabolite methylone: BLQ (Below Lower Limit of Quantification (0.5 ng/mL))
[12]
  Plasma Concentrations of metabolite methylone: BLQ (Below Lower Limit of Quantification (0.5 ng/mL))

## CC(C)COC(=O)N(C)C(C)C(=O)c1ccc2c(c1)OCO2 (centres unmarked) [Compound 1D, iso-Butyl N-[2-(1,3-benzodioxol-5-yl)-1-methyl-2-oxo-ethyl]-N-methyl-carbamate]
[1]
  Plasma Concentrations of metabolite methylone: BLQ (Below Lower Limit of Quantification (0.5 ng/mL))
[2]
  Plasma Concentrations of metabolite methylone: BLQ (Below Lower Limit of Quantification (0.5 ng/mL))
[3]
  Plasma Concentrations of metabolite methylone: BLQ (Below Lower Limit of Quantification (0.5 ng/mL))
[4]
  Plasma Concentrations of metabolite methylone: BLQ (Below Lower Limit of Quantification (0.5 ng/mL))
[5]
  Plasma Concentrations of metabolite methylone: BLQ (Below Lower Limit of Quantification (0.5 ng/mL))
[6]
  Plasma Concentrations of metabolite methylone: BLQ (Below Lower Limit of Quantification (0.5 ng/mL))
[7]
  Plasma Concentrations of metabolite methylone: BLQ (Below Lower Limit of Quantification (0.5 ng/mL))
[8]
  Plasma Concentrations of metabolite methylone: BLQ (Below Lower Limit of Quantification (0.5 ng/mL))
[9]
  Plasma Concentrations of metabolite methylone: BLQ (Below Lower Limit of Quantification (0.5 ng/mL))
[10]
  Plasma Concentrations of metabolite methylone: BLQ (Below Lower Limit of Quantification (0.5 ng/mL))
[11]
  Plasma Concentrations of metabolite methylone: BLQ (Below Lower Limit of Quantification (0.5 ng/mL))
[12]
  Plasma Concentrations of metabolite methylone: BLQ (Below Lower Limit of Quantification (0.5 ng/mL))

## CC(C(=O)c1ccc2c(c1)OCO2)N(C)C(=O)OC(C)(C)C (centres unmarked) [Compound 2A, tert-Butyl N-[2-(1,3-benzodioxol-5-yl)-1-methyl-2-oxo-ethyl]-N-methyl-carbamate]
[1]
  Plasma Concentrations of metabolite methylone: BLQ (Below Lower Limit of Quantification (0.5 ng/mL))
[2]
  Plasma Concentrations of metabolite methylone: BLQ (Below Lower Limit of Quantification (0.5 ng/mL))
[3]
  Plasma Concentrations of metabolite methylone: BLQ (Below Lower Limit of Quantification (0.5 ng/mL))
[4]
  Plasma Concentrations of metabolite methylone: BLQ (Below Lower Limit of Quantification (0.5 ng/mL))
[5]
  Plasma Concentrations of metabolite methylone: BLQ (Below Lower Limit of Quantification (0.5 ng/mL))
[6]
  Plasma Concentrations of metabolite methylone: BLQ (Below Lower Limit of Quantification (0.5 ng/mL))
[7]
  Plasma Concentrations of metabolite methylone: BLQ (Below Lower Limit of Quantification (0.5 ng/mL))
[8]
  Plasma Concentrations of metabolite methylone: BLQ (Below Lower Limit of Quantification (0.5 ng/mL))
[9]
  Plasma Concentrations of metabolite methylone: BLQ (Below Lower Limit of Quantification (0.5 ng/mL))
[10]
  Plasma Concentrations of metabolite methylone: BLQ (Below Lower Limit of Quantification (0.5 ng/mL))
[11]
  Plasma Concentrations of metabolite methylone: BLQ (Below Lower Limit of Quantification (0.5 ng/mL))
[12]
  Plasma Concentrations of metabolite methylone: BLQ (Below Lower Limit of Quantification (0.5 ng/mL))

## CC(C(=O)c1ccc2c(c1)OCO2)N(C)C(=O)C(F)(F)F (centres unmarked) [Compound 2B, N-[2-(1,3-Benzodioxol-5-yl)-1-methyl-2-oxo-ethyl]-2,2,2-trifluoro-N-methyl-acetamide]
[1]
  Plasma Concentrations of metabolite methylone: BLQ (Below Lower Limit of Quantification (0.5 ng/mL))
[2]
  Plasma Concentrations of metabolite methylone: BLQ (Below Lower Limit of Quantification (0.5 ng/mL))
[3]
  Plasma Concentrations of metabolite methylone: BLQ (Below Lower Limit of Quantification (0.5 ng/mL))
[4]
  Plasma Concentrations of metabolite methylone: BLQ (Below Lower Limit of Quantification (0.5 ng/mL))
[5]
  Plasma Concentrations of metabolite methylone: BLQ (Below Lower Limit of Quantification (0.5 ng/mL))
[6]
  Plasma Concentrations of metabolite methylone: BLQ (Below Lower Limit of Quantification (0.5 ng/mL))
[7]
  Plasma Concentrations of metabolite methylone: BLQ (Below Lower Limit of Quantification (0.5 ng/mL))
[8]
  Plasma Concentrations of metabolite methylone: BLQ (Below Lower Limit of Quantification (0.5 ng/mL))
[9]
  Plasma Concentrations of metabolite methylone: BLQ (Below Lower Limit of Quantification (0.5 ng/mL))
[10]
  Plasma Concentrations of metabolite methylone: BLQ (Below Lower Limit of Quantification (0.5 ng/mL))
[11]
  Plasma Concentrations of metabolite methylone: BLQ (Below Lower Limit of Quantification (0.5 ng/mL))
[12]
  Plasma Concentrations of metabolite methylone: BLQ (Below Lower Limit of Quantification (0.5 ng/mL))

## CC(C(=O)c1ccc2c(c1)OCO2)N(C)C(=O)CN(C)C (centres unmarked) [Compound 3B, N-[2-(1,3-Benzodioxol-5-yl)-1-methyl-2-oxo-ethyl]-2-(dimethylamino)-N-methyl-acetamide]
[1]
  Plasma Concentrations of metabolite methylone: BLQ (Below Lower Limit of Quantification (0.5 ng/mL))
[2]
  Plasma Concentrations of metabolite methylone: BLQ (Below Lower Limit of Quantification (0.5 ng/mL))
[3]
  Plasma Concentrations of metabolite methylone: BLQ (Below Lower Limit of Quantification (0.5 ng/mL))
[4]
  Plasma Concentrations of metabolite methylone: BLQ (Below Lower Limit of Quantification (0.5 ng/mL))
[5]
  Plasma Concentrations of metabolite methylone: BLQ (Below Lower Limit of Quantification (0.5 ng/mL))
[6]
  Plasma Concentrations of metabolite methylone: BLQ (Below Lower Limit of Quantification (0.5 ng/mL))
[7]
  Plasma Concentrations of metabolite methylone: BLQ (Below Lower Limit of Quantification (0.5 ng/mL))
[8]
  Plasma Concentrations of metabolite methylone: BLQ (Below Lower Limit of Quantification (0.5 ng/mL))
[9]
  Plasma Concentrations of metabolite methylone: BLQ (Below Lower Limit of Quantification (0.5 ng/mL))
[10]
  Plasma Concentrations of metabolite methylone: BLQ (Below Lower Limit of Quantification (0.5 ng/mL))
[11]
  Plasma Concentrations of metabolite methylone: BLQ (Below Lower Limit of Quantification (0.5 ng/mL))
[12]
  Plasma Concentrations of metabolite methylone: BLQ (Below Lower Limit of Quantification (0.5 ng/mL))
